According to patent US20240271223A1, “BIOMARKERS FOR A THERAPY COMPRISING AN ANGIOGENESIS INHIBITOR” (Eisai R&D Management Co., Ltd., priority 2021, published 2024):

Tests used:
[1] = system: 12 mouse syngeneic tumor models; experiment: Changes in MVD gene score of 12 mouse syngeneic tumor models with or without angiogenesis inhibitor treatment (RNA-seq); format: in vivo; details: tumors collected on day 8, p<0.05, t-test, FIG. 7; for Gene score compared with non-treatment group: lenvatinib 10 mg/kg once daily oral, aflibercept 5 mg/kg twice a week i.p.
Description: Twelve mouse cell lines were cultured with appropriate medium (Table 1). Cells were harvested and suspended with Hanks' Balanced Salt Solution (HBSS) and subcutaneously inoculated into right lateral side of 7-week old immune competent mice. Tumor size was measured by an electronic digital caliper (Digimatic Caliper, Mitsutoyo Corporation) and calculated with a formula; (short diameter (mm))^2×(long diameter (mm))/2. Tumors around 100 mm^3 were resected and soaked with RNA later. mRNA extracted from tumor samples were followed by RNA-seq using Illumina NovaSeq™ (GENEWIZ) to quantify expression levels of mRNA. Sequenced reads were subjected to quality assessment by FastQC (version 0.11.5). Illumina adaptor sequences and low quality bases were trimmed by using Trimmomatic (version 0.36). Filtered reads were mapped to the mouse genome (GRCm38/mm10 and Ensembl 88) by using STAR (v2.5.2b). Gene expression levels in transcripts per million (TPM) for all samples were estimated by using RSEM (v1.2.31). Using the same tumor samples, CD31 was stained with anti-CD31 antibody (Clone SZ31, dianova) to detect endothelial cells in IHC analysis. Microvessel density (MVDCD31) score was calculated by dividing the number of CD31 positive blood vessels by tumor area using HALO (Indica Lab).
We developed a gene score by the following steps. First, we extracted 1086 genes that were highly expressed in an endothelial cell population using scRNA-seq data of the Hepa 1-6 mouse HCC model. Next, we extracted genes with TOP20 Pearson's correlation coefficient between its logarithm-transformed expression values (log2 (TPM+1)) and MVD (IHCCD31) using 12 syngeneic tumor models that were measured by RNA-seq and IHC, respectively. Of these 20 genes, we selected seven genes that had known association with vasculature from literature search and added 3 well-known endothelial cell markers to the gene list (Table 2). We further selected genes whose expression were specific to endothelial cell cluster by manually checking t-SNE plots of scRNA-seq data of Hepa 1-6 HCC model. Finally, six genes were chosen as mouse MVD gene set. The gene score of sample i was calculated as follows: […]
The twelve mouse cell lines shown in Table 1 were subcutaneously inoculated into right lateral side of 7-week-old immune competent mice. Mice were randomly grouped into non-treatment and lenvatinib treatment groups when the tumor size reached approximately 100 mm^3 (n=3 for each group). Lenvatinib (10 mg/kg once daily) was orally administered for mice of lenvatinib treatment group and aflibercept (5 mg/kg twice a week) was administered intraperitoneally for mice of aflibercept treatment group for a week. The day on which treatment was started was designated as day 1. […]

[2] = system: PLC/PRF/5 xenograft HCC model and two HCC patient-derived xenograft models; details: cited from earlier work
[3] = system: 12 mouse syngeneic tumor models; experiment: Antitumor activity of lenvatinib on mouse syngeneic tumor models (ΔT/C); format: in vivo; details: 10 mg/kg once daily oral; ΔT/C on day 15; BNL, Renca and B16-F10 vs other nine models; p<0.05, t-test; FIG. 3c
Description: The twelve mouse cell lines shown in Table 1 were subcutaneously inoculated into the right lateral side of 7-week-old immune competent mice. Mice were randomly grouped when the tumor size reached approximately 100 mm^3. Lenvatinib (10 mg/kg once daily) was orally administered for mice of lenvatinib treatment group. The day on which treatment was started was designated as day 1. The values of antitumor activity (ΔT/C) were calculated as ΔT/ΔC×100 where ΔT and ΔC are changes in the mean tumor volumes for drug treated and untreated control groups, respectively. When the tumor volumes decreased from the initial tumor volumes, ΔT/C values were calculated as (Tt−T1)/T1×100, where Tt and T1 are the mean tumor volumes of drug treated group on day t after the start of treatment and day 1, respectively. ΔT/C on day 15 was used for the analysis.

| Molecule | Gene score compared with non-treatment group [1] | number of tumor models (of 12) in which gene score was decreased vs non-treatment group [1] | tumor microvessel density [2] | antitumor activity (ΔT/C) in lenvatinib sensitive models compared to other nine tumor models [3] |
| --- | --- | --- | --- | --- |
| COc1cc2nccc(Oc3ccc(NC(=O)NC4CC4)c(Cl)c3)c2cc1C(N)=O [lenvatinib, 4-(3-chloro-4-(cyclopropylaminocarbonyl)aminophenoxy)-7-methoxy-6-quinolinecarb oxamide] | decreased | 10 tumor models | reduced tumor microvessel density | more antitumor activity |
| aflibercept: inhibitor of VEGF which binds to circulating VEGF and acts as VEGF-trap, leading to inhibiting tumor angiogenesis | significantly decreased | eight |  |  |
